Results published in patent US10668055B2, “Cancer treatment using combinations of ERK and RAF inhibitors” (BIOMED VALLEY DISCOVERIES, INC., priority 2013, dated 2020).
Read-outs that look alike come from different tables or passages of the source.

Legend:
G-361 = assay: Single agent proliferation assay (CellTiter-Glo, 72 h); type: cell-based; conditions: Homo sapiens, G-361, 72 h
Description: (§1) Cells were seeded in 96-well plates at the densities and media conditions indicated in Table 17 and allowed to adhere overnight prior to addition of compound or vehicle control. Compounds were prepared from DMSO stocks to give the desired final concentrations. The final DMSO concentration was constant at 0.1%. Test compounds were incubated with the cells for 72 h at 37° C., 5% CO2 in a humidified atmosphere. CellTiter-Glo® reagent (Promega, Madison, Wis.) was added according to manufacturer's instructions and luminescence detected using the BMG FLUOstar plate reader (BMG Labtech, Ortenberg, Germany). The average media only background value was deducted and the data analysed using a 4-parameter logistic equation in GraphPad Prism (GraphPad Software, La Jolla, Calif.).

A375 cells [1] = tested on: A375 cells
Description: (§2) Cancer cell lines were maintained in cell culture under standard media and serum conditions. For dose escalation studies, A375 cells were split, grown to about 40-60% confluence, and then treated with the initial dose of the specified drug.
(§3) Proliferation assays were used to track changes in sensitivity to the escalated agent(s) at appropriate time intervals (e.g. each month, although the timing is dependent on adequate cell numbers being available). For proliferation assays, cells were seeded in 96-well plates at 3000 cells per well in drug-free DMEM medium containing 10% FBS and allowed to adhere overnight prior to addition of compound or vehicle control. […] Test compounds were incubated with the cells for 96 hours at 37° C. and 5% CO2 in a humidified atmosphere. Alamar Blue 10% (v/v) was then added and incubated for 4 hours and fluorescent product was detected using a BMG FLUOstar plate reader. The average media only background value was deducted and the data analyzed using a 4-parameter logistic equation in GraphPad Prism. Paclitaxel was used as a positive control.

A375 = assay: Single agent proliferation assay (CellTiter-Glo, 72 h); type: cell-based, human; conditions: Homo sapiens, A-375; A375, 72 h
Description: as §1

A375 cells [2] = assay: Proliferation assay (Alamar Blue, 96 hours) on parental and dose-escalated A375 cell lines; conditions: Homo sapiens
Description: as §2, §3

`CC(=O)O[C@H]1C(=O)[C@@]2(C)[C@H]([C@H](OC(=O)c3ccccc3)[C@]3(O)C[C@H](OC(=O)[C@H](O)[C@@H](NC(=O)c4ccccc4)c4ccccc4)C(C)=C1C3(C)C)[C@]1(OC(C)=O)CO[C@@H]1C[C@@H]2O` [Paclitaxel] was tested, and the IC50 (G-361) was 7 nM, the IC50 (A375 cells [1]) was 4.7 nM and the IC50 (A375) was 5 nM. It also gave an IC50 (A375 cells [2]; A-375, read-out: Relative IC50, Month 1, Par = Parental cell line) of 2.2 nM, an IC50 (A375 cells [2]; A-375, read-out: Relative IC50, Month 1, cell line BVD-523 (0.48 μM)) of 3.4 nM and an IC50 (A375 cells [2]; A-375, read-out: Relative IC50, Month 1, cell line Dab (15 nM Dab)) of 3.3 nM. It also gave an IC50 (A375 cells [2]; A-375, read-out: Relative IC50, Month 1, cell line Dab/523 (7.5 nM/0.24 μM)) of 3.4 nM, an IC50 (A375 cells [2]; A-375, read-out: Relative IC50, Month 1, cell line Tram (growing in 2 nM Tram)) of 3 nM and an IC50 (A375 cells [2]; A-375, read-out: Relative IC50, Month 2, Par = Parental cell line) of 3.7 nM. For the same compound, the IC50 (A375 cells [2]; A-375, read-out: Relative IC50, Month 2, cell line BVD-523 (0.8 μM)) was 6.5 nM, the IC50 (A375 cells [2]; A-375, read-out: Relative IC50, Month 2, cell line Dab (127 nM Dab)) was 1.9 nM and the IC50 (A375 cells [2]; A-375, read-out: Relative IC50, Month 2, cell line Dab/523 (12.5 nM/0.4 μM)) was 4.2 nM. The IC50 (A375 cells [2]; A-375, read-out: Relative IC50, Month 2, cell line Tra (8 nM Tram)) was 8.9 nM, the IC50 (A375 cells [2]; A-375, read-out: Relative IC50, Month 3, Par = Parental cell line) was 1.9 nM and the IC50 (A375 cells [2]; A-375, read-out: Relative IC50, Month 3, cell line Dab (3.2 μM Dab)) was 1.9 nM.
